Data reported in patent publication US10052320B2, “Substituted quinoxalines as FGFR kinase inhibitors” (ASTEX THERAPEUTICS LIMITED, priority 2011, dated 2018).
Like-named read-outs stand apart in the source and are kept apart here.

Experiments:
[1] = target: T1, Ba/F3-Flt3-transfected cells (Homo sapiens, UniProt P36888, cells depend on it, form not given); experiment: Ba/F3-Flt3 (minus IL3) cellular proliferation assay, Alamar Blue; format: cell-based
T1 sequence (P36888 1-993): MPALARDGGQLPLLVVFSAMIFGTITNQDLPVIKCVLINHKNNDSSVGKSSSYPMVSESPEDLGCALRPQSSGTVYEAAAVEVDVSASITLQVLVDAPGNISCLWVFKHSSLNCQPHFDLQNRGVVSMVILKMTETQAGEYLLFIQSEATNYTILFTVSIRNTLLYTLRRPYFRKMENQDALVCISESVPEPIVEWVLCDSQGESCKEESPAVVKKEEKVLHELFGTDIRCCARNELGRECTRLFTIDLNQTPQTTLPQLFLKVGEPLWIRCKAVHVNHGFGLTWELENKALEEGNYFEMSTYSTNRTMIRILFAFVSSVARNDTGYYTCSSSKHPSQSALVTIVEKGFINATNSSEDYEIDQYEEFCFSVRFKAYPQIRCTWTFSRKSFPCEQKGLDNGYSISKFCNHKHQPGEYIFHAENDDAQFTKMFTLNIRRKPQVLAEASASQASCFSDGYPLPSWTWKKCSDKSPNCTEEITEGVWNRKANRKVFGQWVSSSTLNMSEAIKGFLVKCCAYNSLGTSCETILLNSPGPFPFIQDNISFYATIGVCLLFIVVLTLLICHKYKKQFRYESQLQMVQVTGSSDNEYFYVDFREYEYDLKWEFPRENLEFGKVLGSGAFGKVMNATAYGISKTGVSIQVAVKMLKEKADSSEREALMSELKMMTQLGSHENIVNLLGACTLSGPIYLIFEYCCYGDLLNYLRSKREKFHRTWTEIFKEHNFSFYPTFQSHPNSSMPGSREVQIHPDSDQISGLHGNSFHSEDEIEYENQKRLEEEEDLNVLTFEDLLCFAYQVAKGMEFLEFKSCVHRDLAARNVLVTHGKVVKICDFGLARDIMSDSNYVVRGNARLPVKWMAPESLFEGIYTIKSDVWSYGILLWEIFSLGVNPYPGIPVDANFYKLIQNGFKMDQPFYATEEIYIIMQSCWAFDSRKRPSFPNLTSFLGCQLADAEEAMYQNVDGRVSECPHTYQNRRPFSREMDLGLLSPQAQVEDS

[2] = test system: Ba/F3-Flt3-transfected cells in the presence of 10 ng/ml murine IL3; experiment: Ba/F3-Flt3 (plus IL3) cellular proliferation counterscreen, Alamar Blue; format: cell-based; details: for IC50: Mus musculus, read-out: BAF3-FLT3 (PLUS IL3) 384 well pIC50 (converted)
FGFR2 (h) = FGFR2 (h) (Homo sapiens, UniProt P21802); experiment: FGFR2 (enzymatic assay), TR-FRET; format: biochemical; details: read-out: FGFR 2 pIC50 (converted)
Sequence of FGFR2 (h) (P21802 22-821): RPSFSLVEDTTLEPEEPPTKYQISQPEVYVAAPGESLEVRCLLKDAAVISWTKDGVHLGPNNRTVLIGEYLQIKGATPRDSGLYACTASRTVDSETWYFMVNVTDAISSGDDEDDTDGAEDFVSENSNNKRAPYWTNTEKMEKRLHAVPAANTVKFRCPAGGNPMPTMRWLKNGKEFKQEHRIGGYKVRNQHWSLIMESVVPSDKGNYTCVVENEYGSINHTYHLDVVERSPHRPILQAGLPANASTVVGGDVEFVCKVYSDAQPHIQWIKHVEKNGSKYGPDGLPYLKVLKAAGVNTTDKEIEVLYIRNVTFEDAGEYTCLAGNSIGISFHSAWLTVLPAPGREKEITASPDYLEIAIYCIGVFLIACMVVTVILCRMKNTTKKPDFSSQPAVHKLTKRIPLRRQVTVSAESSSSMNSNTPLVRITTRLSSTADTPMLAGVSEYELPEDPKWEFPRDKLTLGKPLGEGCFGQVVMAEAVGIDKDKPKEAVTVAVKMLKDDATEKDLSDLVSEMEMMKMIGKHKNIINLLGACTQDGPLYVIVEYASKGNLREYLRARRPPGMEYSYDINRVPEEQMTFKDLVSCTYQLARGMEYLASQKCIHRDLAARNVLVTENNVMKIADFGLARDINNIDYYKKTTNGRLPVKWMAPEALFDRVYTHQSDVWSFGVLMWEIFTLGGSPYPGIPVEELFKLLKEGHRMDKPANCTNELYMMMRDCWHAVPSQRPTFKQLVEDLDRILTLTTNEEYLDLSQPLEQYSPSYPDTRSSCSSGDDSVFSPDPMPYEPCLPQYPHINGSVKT
Protocol: In a final reaction volume of 30 μL, FGFR2 (h) (150 ng/ml) was incubated with 50 mM HEPES pH 7.5, 6 mM MnCl2, 1 mM DTT, 0.1 mM Na3VO4, 0.01% Triton-X-100, 500 nM Btn-Flt3 and 0.4 μM ATP in the presence of compound (1% DMSO final). […] Time-Resolved Fluorescence Resonance Energy Transfer (TR-FRET) signal (ex340 nm. Em 620 nm, em 655 nm) was measured afterwards and results are expressed in (Relative Fluorescence Units).

[3] = target: Ba/F3-FGFR3-transfected cells (Homo sapiens, UniProt P22607); experiment: Ba/F3-FGFR3 (minus IL3) cellular proliferation assay, Alamar Blue; format: cell-based; details: for BAF3-FGFR 3 (MIN IL3) 384 well pIC50: minus IL3, 384 well; for BAF3-FGFR 3 (MIN IL3) 96 well pIC50: minus IL3, 96 well
Sequence of Ba/F3-FGFR3-transfected cells (P22607 whole entry, change not shown): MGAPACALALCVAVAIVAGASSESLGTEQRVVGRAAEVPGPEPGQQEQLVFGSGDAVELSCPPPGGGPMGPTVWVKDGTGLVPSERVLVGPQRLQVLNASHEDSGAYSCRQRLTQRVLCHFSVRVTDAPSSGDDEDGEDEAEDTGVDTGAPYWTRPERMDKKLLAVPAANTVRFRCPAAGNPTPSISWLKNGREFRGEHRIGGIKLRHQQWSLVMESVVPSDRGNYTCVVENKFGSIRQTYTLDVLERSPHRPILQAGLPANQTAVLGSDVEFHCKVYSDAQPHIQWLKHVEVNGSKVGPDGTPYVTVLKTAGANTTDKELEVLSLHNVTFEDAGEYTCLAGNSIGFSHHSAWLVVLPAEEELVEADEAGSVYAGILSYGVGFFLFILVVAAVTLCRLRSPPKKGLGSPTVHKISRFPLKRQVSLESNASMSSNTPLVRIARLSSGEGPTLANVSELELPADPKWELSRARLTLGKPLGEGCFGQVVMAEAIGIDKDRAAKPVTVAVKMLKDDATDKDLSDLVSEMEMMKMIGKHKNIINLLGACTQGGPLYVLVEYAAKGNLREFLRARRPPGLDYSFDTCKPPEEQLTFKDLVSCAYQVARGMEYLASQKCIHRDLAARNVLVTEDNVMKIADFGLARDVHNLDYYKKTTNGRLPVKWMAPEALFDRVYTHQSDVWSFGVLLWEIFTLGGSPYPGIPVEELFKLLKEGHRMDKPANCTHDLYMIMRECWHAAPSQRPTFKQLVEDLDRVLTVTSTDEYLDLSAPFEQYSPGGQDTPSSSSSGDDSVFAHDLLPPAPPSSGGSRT
Procedure, shortened: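 Ba/F3 cells transfected with FGFR3 were exposed to compound in RPMI-1640 with 10% FBS for 24 h at 37 °C, 5% CO2. Alamar Blue (resazurin) was then added for 4 h, and fluorescence was read at ex 540/em 590 nm.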

| SMILES | BAF3-FLT3 (MIN IL3) 384 well pIC50 ([1]; minus IL3) | IC50 ([2]; plus 10 ng/ml murine IL3) | melting point | BAF3-FLT3 (PLUS IL3) 384 well pIC50 ([2]; plus 10 ng/ml murine IL3) | BAF3-FLT3 (MIN IL3) 96 well pIC50 ([1]; minus IL3) | BAF3-FLT3 (MIN IL3) 96 well pIC50 ([1]; minus IL3, 96 well) | BAF3-FLT3 (MIN IL3) 384 well pIC50 ([1]; minus IL3, 384 well) | IC50 ([2]; plus IL3, 384 well) | IC50 (FGFR2 (h)) | BAF3-FGFR 3 (MIN IL3) 384 well pIC50 [3] | BAF3-FGFR 3 (MIN IL3) 96 well pIC50 [3] |
| --- | --- | --- | --- | --- | --- | --- | --- | --- | --- | --- | --- |
| COc1cc(OC)cc(N(CC(OC(C)=O)C(F)(F)F)c2ccc3ncc(-c4cccnc4)nc3c2)c1 (single isomer, unassigned) [Compound 45] | <5 | > 10000 nM | – | – | – | – | – | – | – | – | – |
| COc1cc(OC)cc(N(CC(O)C(F)(F)F)c2ccc3ncc(-c4cccnc4)nc3c2)c1 (single isomer, unassigned) [Compound 53] | <5 | > 10000 nM | 211 °C | – | – | – | – | – | – | – | – |
| COc1cc(OC)cc(N(CC(O)C(F)(F)F)c2ccc3ncc(-c4cccnc4)nc3c2)c1 (single isomer, unassigned) [Compound 54] | <5 | – | 210 °C | <5 | – | – | – | – | – | – | – |
| COc1cc(OC)cc(N(CC(OC(C)=O)C(F)(F)F)c2ccc3ncc(-c4cccnc4)nc3c2)c1 (single isomer, unassigned) [Compound 75] | <5 | – | 180 °C | <5 | – | – | – | – | – | – | – |
| COc1cc(OC)cc(N(CC2CC2)c2ccc3ncc(-c4ccnn4C)nc3c2)c1 [Compound 18] | <5 | > 10000 nM | 132 °C | – | <5 | – | – | – | – | – | – |
| COc1cc(OC)cc(N(CC2CC2)c2ccc3ncc(-c4ccc5c(ccn5C)c4)nc3c2)c1 [Compound 20] | – | – | – | – | – | <5 | <5 | > 10000 nM | – | – | – |
| COc1cc(OC)cc(N(CC2CC2)c2ccc3ncc(-c4cn(C)cn4)nc3c2)c1 [Compound 21] | <5 | > 10000 nM | 136 °C | – | <5 | – | – | – | – | – | – |
| COc1cc(OC)cc(N(CC2CC2)c2ccc3ncc(-c4cc[nH]c4)nc3c2)c1 [Compound 36] | <5 | > 10000 nM | – | – | <5 | – | – | – | – | – | – |
| COc1cc(OC)cc(N(CC2CC2)c2ccc3ncc(-c4ccn(CCO)c4)nc3c2)c1 [Compound 56] | <5 | > 10000 nM | 143 °C | – | <5 | – | – | – | – | – | – |
| COc1cc(OC)cc(N(CC2CC2)c2ccc3ncc(Nc4cnn(C)c4)nc3c2)c1 [Compound 61] | <5 | > 10000 nM | 160 °C | – | 5.25 | – | – | – | – | – | – |
| COc1cc(OC)cc(N(CC2CC2)c2ccc3ncc(-c4cnn(C)n4)nc3c2)c1 [Compound 70] | <5 | > 10000 nM | 129 °C | – | <5 | – | – | – | – | – | – |
| COc1cc(OC)cc(N(CC2CC2)c2ccc3ncc(-c4cn(C)nn4)nc3c2)c1 [Compound 71] | <5 | > 10000 nM | 141 °C | – | <5 | – | – | – | – | – | – |
| CNCCN(c1cc(OC)cc(OC)c1)c1ccc2ncc(-c3ccc(NC(=O)OC(C)(C)C)nc3)nc2c1 [Compound 81] | 5.76 | – | 182 °C | – | – | – | – | – | 5.5 nM | 5.91 | – |
| COc1cc(OC)cc(N(CC2CC2)c2ccc3ncc(-c4nnn(C)n4)nc3c2)c1 [Compound 82] | <5 | – | 143 °C | – | <5 | – | – | – | 229 nM | <5 | 5.18 |
| COc1cc(OC)cc(N(CC2CC2)c2ccc3ncc(C(=O)NCCN4CCOCC4)nc3c2)c1 [Compound 96] | <5 | – | 112 °C | – | <5 | – | – | – | ~912 nM | <5 | 5.18 |
| COc1cc(OC)cc(N(CC2CC2)c2ccc3ncc(-c4nccs4)nc3c2)c1 [Compound 97] | <5 | – | 148 °C | – | <5 | – | – | – | 2000 nM | <5 | <5 |
| COc1cc(OC)cc(N(CC2CC2)c2ccc3ncc(Nc4nccs4)nc3c2)c1 [Compound 98] | <5 | – | 213 °C | – | <5 | – | – | – | 676 nM | <5 | <5 |
| COc1cc(OC)cc(N(CC2CC2)c2ccc3ncc(C(=O)NCc4ccc(F)cc4)nc3c2)c1 [Compound 101] | <5 | – | 140 °C | – | <5 | – | – | – | > 1000 nM | <5 | <5 |
| COc1cc(OC)cc(N(CC2CC2)c2ccc3ncc(Nc4nncs4)nc3c2)c1 [Compound 102] | <5 | – | 260 °C | – | ~5 | – | – | – | > 1000 nM | <5 | <5 |
| COc1cc(OC)cc(N(CC2CC2)c2ccc3ncc(-c4cccn4C)nc3c2)c1 [Compound 103] | <5 | – | 141 °C | – | 5.17 | – | – | – | > 1000 nM | <5 | <5 |
| COc1cc(OC)cc(N(CC2CC2)c2ccc3ncc(-n4cnc(CO)c4)nc3c2)c1 [Compound 105] | <5 | – | 154 °C | – | – | – | – | – | 40.7 nM | 5.53 | – |
| COc1cc(OC)cc(N(CCO)c2ccc3ncc(-c4ccc(N)nc4)nc3c2)c1 [Compound 106] | <5.025 | – | 160 °C | – | – | – | – | – | 5.82 nM | ~6.54 | – |
| CNC(=O)c1cc(-c2cnc3ccc(N(CCN4CCCC4CO)c4cc(OC)cc(OC)c4)cc3n2)ccn1 (stereo not drawn) [Compound 109] | <5 | – | 172 °C | – | – | – | – | – | 6.31 nM | ~6.77 | – |
| CNC(=O)c1cc(-c2cnc3ccc(N(CCNCC(F)(F)F)c4cc(OC)cc(OC)c4)cc3n2)ccn1 [Compound 113] | <5 | – | 98 °C | – | – | – | – | – | 45.7 nM | ~5.63 | – |
| COc1cc(OC)cc(N(CCCO)c2ccc3ncc(-c4ccc(C)nc4)nc3c2)c1 [Compound 115] | – | – | 166 °C | – | – | – | – | – | 13.5 nM | 6.29 | – |
| COc1cc(OC)cc(N(CCNC(C)C)c2ccc3ncc(-c4ccccc4)nc3c2)c1 [Compound 121] | ~5.34 | – | – | – | – | – | – | – | 3.72 nM | 6.42 | – |
| COc1cc(OC)cc(N(CCCO)c2ccc3ncc(-c4ccc(N5CCOCC5)nc4)nc3c2)c1 [Compound 124] | <5 | > 10000 nM | – | – | – | – | – | – | – | ~6.64 | – |
| COc1cc(OC)cc(N(CCCO)c2ccc3ncc(-c4ccc(N(C)C(=O)OC(C)(C)C)nc4)nc3c2)c1 [Compound 125] | <5 | – | 143 °C | – | – | – | – | – | 309 nM | ~6.04 | – |
| COc1cc(OC)cc(N(CCCO)c2ccc3ncc(-c4ccnc(C(=O)NCCCCN)c4)nc3c2)c1 [Compound 126] | <5 | – | 130 °C | – | – | – | – | – | 33.1 nM | 5.51 | – |
